Patent US9206161B2, “Bridged bicyclic heteroaryl substituted triazoles useful as Axl inhibitors” (Rigel Pharmaceuticals, Inc., priority 2008, dated 2015)
Each block holds one compound with its values, some of them ahead of it.

Target: T1, Axl (Homo sapiens, UniProt P30530)
T1 construct: endogenous in cells; host or cells: HeLa cells
T1 sequence (P30530 26-894): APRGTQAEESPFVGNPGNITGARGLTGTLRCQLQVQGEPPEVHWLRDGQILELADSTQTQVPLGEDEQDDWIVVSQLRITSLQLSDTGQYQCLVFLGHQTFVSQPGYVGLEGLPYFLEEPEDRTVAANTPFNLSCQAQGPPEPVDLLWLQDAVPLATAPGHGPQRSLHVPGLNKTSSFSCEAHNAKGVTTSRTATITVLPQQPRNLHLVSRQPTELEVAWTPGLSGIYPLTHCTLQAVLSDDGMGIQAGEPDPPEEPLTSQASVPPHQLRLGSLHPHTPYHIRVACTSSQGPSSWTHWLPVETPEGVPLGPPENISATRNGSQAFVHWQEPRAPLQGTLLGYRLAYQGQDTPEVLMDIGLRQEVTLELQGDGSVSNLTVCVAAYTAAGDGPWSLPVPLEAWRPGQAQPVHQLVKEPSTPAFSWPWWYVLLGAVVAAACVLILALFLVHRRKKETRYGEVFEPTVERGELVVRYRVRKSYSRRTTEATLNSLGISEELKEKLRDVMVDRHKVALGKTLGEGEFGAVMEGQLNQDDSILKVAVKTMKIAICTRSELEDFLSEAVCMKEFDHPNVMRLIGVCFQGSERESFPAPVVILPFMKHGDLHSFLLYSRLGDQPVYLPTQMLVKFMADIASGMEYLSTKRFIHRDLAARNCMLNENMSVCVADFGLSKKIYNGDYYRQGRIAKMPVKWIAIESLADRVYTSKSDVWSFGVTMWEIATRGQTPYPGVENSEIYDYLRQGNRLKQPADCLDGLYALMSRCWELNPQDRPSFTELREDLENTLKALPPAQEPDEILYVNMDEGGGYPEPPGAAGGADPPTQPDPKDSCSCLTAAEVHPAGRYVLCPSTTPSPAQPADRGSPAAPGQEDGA
Assay: Phospho-Akt in-cell Western assay
Type: cell-based
Conditions: Hela cells, Axl antibody cross-linking stimulation, phospho-Akt readout
Description: Phospho-Akt in-Cell Western Assay
The compounds of the invention were tested in the following assay for their ability to inhibit Axl activity.
• Cell culture plate: 96 well assay plate (Corning 3610), white, clear bottom, tissue-culture treated. • Cells: Hela cells. • Starvation medium: For Axl stimulation: 0.5% FCS (fetal calf serum) in DMEM, plus Axl/Fc (extracellular domain of AXL fused to immunoglobulin Fc region) (R&D, 154-AL) 500 ng/mL. • For EGF (epidermal growth factor) stimulation: 0.5% FCS in DMEM (Dulbecco's modified Eagles medium). • Poly-L-Lysine 0.01% solution (the working solution): 10 μg/ml, dilute In PBS (phosphate buffered saline). • Axl antibody cross-linking: • 1st: Mouse anti-Axl (R&D, MAB154). • 2nd: Biotin-SP-conjugated AffiniPure goat anti-mouse IgG (H+L) (Jackson ImmunoResearch #115-065-003). • Fixing buffer: 4% formaldehyde in PBS. • Wash buffer: 0.1% TritonX-100 in PBS. • Quenching buffer: 3% H2O2, 0.1% Azide in wash buffer, Azide and hydrogen peroxide (H2O2) are added fresh. • Blocking buffer: 5% BSA in TBST (tris buffered saline plus 0.1% Tween 20). • Primary antibody: Rabbit anti-human Phospho-Akt antibody (Cell Signaling 9271): 1×250 diluted in blocking buffer. • Secondary antibody: HRP (horse radish peroxidase)-conjugated Goat anti-Rabbit secondary, stock solution: Jackson ImmunoResearch (Goat anti-Rabbit HRP, #111-035-144) 1:1 diluted in glycerol, store at −20° C. The working solution: 1×2000 dilution of stock in blocking buffer. • Chemiluminescent working solution (Pierce, 37030): SuperSignal ELISA (enzyme linked immunosorbant assay) Pico Chemiluminescent substrate. • Crystal Violet solution: Stock: 2.5% Crystal violet in methanol, filtered and kept at ambient temperature. The working solution: dilute the stock 1:20 with PBS immediately before use. • 10% SDS: working solution: 5% SDS (sodium dodecylsulfate), diluted in PBS Methods: Day 1:
A 96 well TC (tissue culture treated) plate was coated with 10 μg/mL poly-L-Lysine at 37° C. for 30 min, washed twice with PBS, and air-dried for 5 minutes before cells were added. Hela cells were seeded at 10,000 cells/well and the cells were starved in 100 μL starvation medium containing Axl/Fc for 24 hrs.
The cells were pre-treated with test compounds by adding 100 μL of 2× test compound to the starvation medium on the cells. The cells were incubated at 37° C. for 1 hr before stimulation.
The cells were stimulated by Axl-antibody cross-linking as follows: A 5×1st/2nd Axl antibody mixture was made (37.5 μg/mL 1st/100 μg/mL 2nd) in starvation medium and nutated at 4° C. with thorough mixing for 1-2 hours for clustering. The resulting mix was warmed to 37° C. 50 μL of 5× Axl 1st/2nd of antibody cluster was added to the cells and the cells were incubated at 37° C. for 5 min.
After 5 minutes stimulation, the plate was flicked to remove medium and the plate was tapped onto paper towels. Formaldehyde (4.0% in PBS, 100 μL) was added to fix the cells and the cells were incubated at ambient temperature for 20 min without shaking.
The cells were washed with a plate washer buffer to remove the formaldehyde solution. The plate was flicked to removed excess wash buffer and tapped onto paper towels. Quenching buffer (100 μL) was added to each well and the cells were incubated at ambient temperature for 20 minutes without shaking.
The cells were washed with a plate washer buffer to remove the quenching buffer. Blocking buffer (100 μL) was added and the cells were incubated at ambient temperature for at least an hour with gentle shaking.
The cells were washed with a plate washer buffer and diluted primary antibody (50 μL) was added to each well (blocking buffer was added to the negative control wells instead). The plates were incubated overnight at 4° C. with gentle shaking.
The wash buffer was removed, diluted secondary antibody (100 μL) was added, and the cells were incubated at ambient temperature for 1 hour with gentle shaking. […]

- IC50 (Table 8, formula (VI)): < 1000 nM
SMILES: Nc1nc(Nc2ccc3c(c2)CCC(N2CCCC2)CC3)nn1-c1nnc(-c2ccccc2Cl)c2c1C1CCC2CC1 (stereo not shown) [Compound 29, 1-(4-(2-chlorophenyl)-5,8-ethano-5,6,7,8-tetrahydrophthalazine-1-yl)-N^3-(7-(pyrrolidin-1-yl)-6,7,8,9-tetrahydro-5H-benzo[7]annulene-2-yl)-1H-1,2,4-triazole-3,5-diamine]

- IC50 (Table 4, formula (III)): < 1000 nM
SMILES: CC(C)CN[C@H]1CCc2ccc(Nc3nc(N)n(-c4cc(-c5ccccc5)c5c(n4)C4CCN5CC4)n3)cc2CC1 [Compound 40, (7S)-1-(1,4-ethano-8-phenyl-1,2,3,4-tetrahydro-1,5-naphthyridin-6-yl)-N^3-(7-(isobutylamino)-6,7,8,9-tetrahydro-5H-benzo[7]annulene-2-yl)-1H-1,2,4-triazole-3,5-diamine]

- IC50 (Table 3, formula (II)): < 1000 nM
SMILES: Cc1ccccc1-c1cc(-n2nc(Nc3ccc(N4CCC(N5CCCC5)CC4)c(F)c3)nc2N)nc2c1N1CCC2CC1 [Compound 12, 1-(1,4-ethano-8-(2-methylphenyl)-1,2,3,4-tetrahydro-1,5-naphthyridin-6-yl)-N^3-(4-(4-(pyrrolidin-1-yl)piperidinyl)-3-fluorophenyl)-1H-1,2,4-triazole-3,5-diamine]

- IC50 (Table 3, formula (II)): < 1000 nM
SMILES: Nc1nc(Nc2ccc(N3CCC(N4CCCC4)CC3)c(F)c2)nn1-c1cc(-c2cccc(C(F)(F)F)c2)c2c(n1)C1CCN2CC1 [Compound 10, 1-(1,4-ethano-8-(3-trifluoromethylphenyl)-1,2,3,4-tetrahydro-1,5-naphthyridin-6-yl)-N^3-(4-(4-(pyrrolidin-1-yl)piperidinyl)-3-fluorophenyl)-1H-1,2,4-triazole-3,5-diamine]

- IC50 (Table 7, formula (V)): < 1000 nM
SMILES: C[C@H]1CN(c2ccc(Nc3nc(N)n(-c4nnc(Cl)c5c4C4CCC5CC4)n3)cn2)CCN1CC1CC1 [Compound 20, (3S)-1-(4-chloro-5,8-ethano-5,6,7,8-tetrahydrophthalazine-1-yl)-N^3-(6-(4-(cyclopropylmethyl)-3-methylpiperazin-1-yl)pyridin-3-yl)-1H-1,2,4-triazole-3,5-diamine]

- IC50 (Table 8, formula (VI)): < 1000 nM
SMILES: Cc1cccc(-c2nnc(-n3nc(Nc4ccc5c(c4)CCC(N4CCCC4)CC5)nc3N)c3c2C2CCC3CC2)c1 (stereo not shown) [Compound 30, 1-(4-(3-methylphenyl)-5,8-ethano-5,6,7,8-tetrahydrophthalazine-1-yl)-N^3-(7-(pyrrolidin-1-yl)-6,7,8,9-tetrahydro-5H-benzo[7]annulene-2-yl)-1H-1,2,4-triazole-3,5-diamine]

- IC50 (Table 3, formula (II)): < 1000 nM
SMILES: Nc1nc(Nc2ccc(N3CCC(N4CCCC4)CC3)c(F)c2)nn1-c1cc(-c2ccccc2)c2c(n1)C1CCN(CC1)C2 [Compound 7, 1-(6,9-ethano-4-phenyl-6,7,8,9-tetrahydro-5H-pyrido[3,2-c]azepin-2-yl)-N^3-(4-(4-(pyrrolidin-1-yl)piperidinyl)-3-fluorophenyl)-1H-1,2,4-triazole-3,5-diamine]

SMILES: Nc1nc(Nc2cnc3c(c2)CNCC3)nn1-c1cc(-c2ccccc2)c2c(n1)C1CCN2CC1 [Compound 2, 1-(1,4-ethano-8-phenyl-1,2,3,4-tetrahydro-1,5-naphthyridin-6-yl)-N^3-(5,6,7,8-tetrahydro-1,6-naphthyridine-3-yl)-1H-1,2,4-triazole-3,5-diamine]
- IC50 (Table 2, formula (Ib)): < 1000 nM

- IC50 (Table 8, formula (VI)): 1000 to 10000 nM
SMILES: CCOc1ccc(C)cc1-c1nnc(-n2nc(Nc3ccc4c(c3)CCC(N3CCCC3)CC4)nc2N)c2c1C1CCC2CC1 (stereo not shown) [Compound 32, 1-(4-(2-ethoxy-5-methylphenyl)-5,8-ethano-5,6,7,8-tetrahydrophthalazine-1-yl)-N^3-(7-(pyrrolidin-1-yl)-6,7,8,9-tetrahydro-5H-benzo[7]annulene-2-yl)-1H-1,2,4-triazole-3,5-diamine]

- IC50 (Table 8, formula (VI)): < 1000 nM
SMILES: Nc1nc(Nc2ccc3c(c2)CCC(N2CCCC2)CC3)nn1-c1nnc(Cl)c2c1C1CCC2CC1 (stereo not shown) [Compound 27, 1-(4-chloro-5,8-ethano-5,6,7,8-tetrahydrophthalazine-1-yl)-N^3-(7-(pyrrolidin-1-yl)-6,7,8,9-tetrahydro-5H-benzo[7]annulene-2-yl)-1H-1,2,4-triazole-3,5-diamine]

- IC50 (Table 9, formula (VII)): < 1000 nM
SMILES: Nc1nc(Nc2ccc(N3CCC(N4CCCC4)CC3)c(F)c2)nn1-c1nc(-c2ccccc2)c2c(n1)C1CCN2CC1 [Compound 43, 1-(5,8-ethano-4-phenyl-5,6,7,8-tetrahydropyrido[3,2-d]pyrimidin-2-yl)-N^3-(4-(4-(pyrrolidin-1-yl)piperidinyl)-3-fluorophenyl)-1H-1,2,4-triazole-3,5-diamine]

SMILES: Nc1nc(Nc2cnc3c(c2)CN(C2CCCC2)CC3)nn1-c1cc(-c2ccccc2)c2c(n1)C1CCN2CC1 [Compound 6, 1-(1,4-ethano-8-phenyl-1,2,3,4-tetrahydro-1,5-naphthyridin-6-yl)-N^3-(6-(cyclopentyl)-5,6,7,8-tetrahydro-1,6-naphthyridine-3-yl)-1H-1,2,4-triazole-3,5-diamine]
- IC50 (Table 2, formula (Ib)): < 1000 nM

- IC50 (Table 5, formula (IVa)): < 1000 nM
SMILES: Nc1nc(Nc2ccc(N3CCC(N4CCCC4)CC3)c(F)c2)nn1-c1nnc(-c2ccncc2)c2c1C1CCC2CC1 [Compound 18, 1-(4-(pyridin-4-yl)-5,8-ethano-5,6,7,8-tetrahydrophthalazine-1-yl)-N^3-(4-(4-(pyrrolidin-1-yl)piperidinyl)-3-fluorophenyl)-1H-1,2,4-triazole-3,5-diamine]
